Experimental data from patent publication US7361758B2, “Crystals of triazaspiro[5.5]undecane derivative” (Ono Pharmaceutical Co., Ltd., priority 2002, dated 2008).

Key:
[1] = test system: rats; conditions: rat, in vivo, 2000 mg/kg
Description: Thus, the inventive compound is determined as sufficiently safe for medical use.

[2] = molecular target: interaction between chemokine and a chemokine receptor (Homo sapiens, UniProt P51681); experiment: antagonistic activity against the interaction between chemokine and a chemokine receptor (method described in WO 01/40227); format: biochemical; conditions: compared with the amorphous substance produced by the method of WO 02/074770
Chain of interaction between chemokine and a chemokine receptor (P51681 whole entry): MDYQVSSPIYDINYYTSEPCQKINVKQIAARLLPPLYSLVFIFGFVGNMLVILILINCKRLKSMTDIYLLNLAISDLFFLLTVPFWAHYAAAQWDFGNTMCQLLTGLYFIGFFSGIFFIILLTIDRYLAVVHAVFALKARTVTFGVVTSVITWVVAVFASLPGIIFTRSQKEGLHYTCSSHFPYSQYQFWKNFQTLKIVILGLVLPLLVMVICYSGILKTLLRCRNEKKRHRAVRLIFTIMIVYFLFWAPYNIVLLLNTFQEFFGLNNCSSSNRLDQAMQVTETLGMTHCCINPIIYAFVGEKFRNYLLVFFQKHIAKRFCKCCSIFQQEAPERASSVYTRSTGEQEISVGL

## CCCCN1C(=O)[C@@H]([C@H](O)C2CCCCC2)NC(=O)C12CCN(Cc1ccc(Oc3ccc(C(=O)O)cc3)cc1)CC2.Cl [Crystal A, (3R)-1-butyl-2,5-dioxo-3-[(1R)-1-hydroxy-1-cyclohexylmethyl]-9-[4-(4-carboxyphenyloxy)phenylmethyl]-1,4,9-triazaspiro[5.5]undecane Hydrochloride]
[1]
  toxicity: never showed distinct toxicity
[2]
  antagonistic activity against the interaction between chemokine and a chemokine receptor: almost the same level as that of the amorphous substance
